Tests used:
Conditions in all cases: incubation time: 72 h
CAL-148 = experiment: normalised response (% of control), CellTiter-Glo; higher = more viable cells (100 = DMSO, 0 = benzethonium chloride kill control)
How it was run: (§1)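 Values are normalised signals, each belonging to one concentration of the series. Breast cancer cells (20 µl suspension) were seeded into 384-well plates with compound at 5 concentrations in 10-fold steps over a compound-specific 10,000-fold range and incubated 72 h. Readouts were CellTox Green fluorescence (485/520 nm), then CellTiter-Glo luminescence after 10 min at room temperature, with each plate set to 0.1 % DMSO as 100 and a positive kill control as 0.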

HCC1599 = experiment: as above
How it was run: as §1

DU-4475 = experiment: as above
How it was run: as §1

CAL-120 = experiment: as above
How it was run: as §1

BT-474 = experiment: as above
How it was run: as §1

CAL-51 = experiment: as above
How it was run: as §1

SK-BR-3 = experiment: as above
How it was run: as §1

MDA-MB-468 = experiment: as above
How it was run: as §1

MFM-223 = experiment: as above
How it was run: as §1

BT-549 = experiment: as above
How it was run: as §1

MDA-MB-436 = experiment: as above
How it was run: as §1

MDA-MB-231 [1] = experiment: as above
How it was run: as §1

CAL-85-1 = experiment: as above
How it was run: as §1

MCF-10A = experiment: as above
How it was run: as §1

MDA-MB-453 = experiment: as above
How it was run: as §1

HDQ-P1 = experiment: as above
How it was run: as §1

Hs578T = experiment: as above
How it was run: as §1

HCC1143 = experiment: as above
How it was run: as §1

HCC1937 [2] = experiment: as above
How it was run: as §1

MDA-MB-231 [3] = experiment: drug sensitivity score (DSS), CellTox Green (DSS (AUC-based score)); higher = stronger drug effect (viability inhibition or cytotoxicity); extreme values may be limits of the assay
How it was run: (§2)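 Each compound occupied 5 concentrations in 10-fold steps over its own 10,000-fold range in 384-well plates, into which breast cancer cell lines were seeded as 20 µl suspension. Following 72 h of incubation, CellTox Green fluorescence (485/520 nm) was measured, and CellTiter-Glo luminescence was measured after 10 min at room temperature. Plates were individually normalised to 0.1 % DMSO and a positive kill control. From the area under the fitted dose-response curve, a drug sensitivity score was calculated.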

HCC1937 [4] = experiment: as above
How it was run: as §2

SMILES	normalised response (CAL-148)	normalised response (HCC1599)	normalised response (DU-4475)	normalised response (CAL-120)	normalised response (BT-474)	normalised response (CAL-51)	normalised response (SK-BR-3)	normalised response (MDA-MB-468)	normalised response (MFM-223)	normalised response (BT-549)	normalised response (MDA-MB-436)	normalised response (MDA-MB-231 [1])	normalised response (CAL-85-1)	normalised response (MCF-10A)	normalised response (MDA-MB-453)	normalised response (HDQ-P1)	normalised response (Hs578T)	normalised response (HCC1143)	normalised response (HCC1937 [2])	drug sensitivity score (MDA-MB-231 [3])	drug sensitivity score (HCC1937 [4])
COc1cccc2cc(-c3nc([C@H]4CC[C@H](C(=O)O)CC4)n4ncnc(N)c34)[nH]c12 [OSI-027] (1000 nM)	93.1%	118%	89.3%	77.3%	79.6%	92.4%	48.2%	84.2%	72.5%	74.6%	80.2%	85.5%	76.2%	87%	71.2%	66.1%	96.6%	90.8%	81.2%		
OC[C@H]1O[C@@H](n2cnc3c2N=CNC[C@H]3O)C[C@@H]1O [Pentostatin] (1000 nM)	94.4%	103%	98%	95.6%	93.9%	92.4%	104%	99.4%	103%	95.7%	102%	108%	100%	105%	97.8%	94.1%	105%	104%	100%		
N#CC[C@H](C1CCCC1)n1cc(-c2ncnc3[nH]ccc23)cn1 [Ruxolitinib] (1000 nM)	99.9%	100%	99.6%	89.4%	90.2%	121%	90.2%	90.8%	91%	96.3%	101%	104%	95.8%	80.6%	84.3%	98.2%	105%	92.9%	103%		
C=CC[C@@H]1/C=C(\C)C[C@H](C)C[C@H](OC)[C@H]2O[C@@](O)(C(=O)C(=O)N3CCCC[C@H]3C(=O)O[C@H](/C(C)=C/[C@@H]3CC[C@@H](O)[C@H](OC)C3)[C@H](C)[C@@H](O)CC1=O)[C@H](C)C[C@@H]2OC [Tacrolimus] (1000 nM)	96.6%	121%	100%	101%	97.4%	109%	88.5%	105%	101%	102%	99.7%	106%	95.1%	102%	108%	105%	96%	98.4%	101%		
C=CCNC1=C2C[C@@H](C)C[C@H](OC)[C@H](O)[C@@H](C)/C=C(\C)[C@H](OC(N)=O)[C@@H](OC)/C=C\C=C(/C)C(=O)NC(=CC1=O)C2=O [Tanespimycin] (1000 nM)	24.1%	57.8%	0.04%	51.8%	21.1%	26%	38.5%	42.3%	39.2%	33.4%	43.3%	23.5%	27.9%	14.6%	28.9%	22.8%	38.2%	36%	29%		
O=C(c1ccc(C(=O)N2CCC(N3CCCC3)CC2)c(Nc2ccccc2)c1)N1CCC(N2CCCC2)CC1 [UNC1215]																				0	0
C[C@]1(c2nc3c(C(N)=O)cccc3[nH]2)CCCN1 [Veliparib] (1000 nM)	96.2%	104%	98.6%	97%	93.8%	72.6%	101%	104%	107%	103%	95.4%	103%	115%	91.3%	109%	102%	105%	105%	101%		
CC[C@]1(O)C[C@@H]2CN(CCc3c([nH]c4ccccc34)[C@@](C(=O)OC)(c3cc4c(cc3OC)N(C)[C@H]3[C@@](O)(C(=O)OC)[C@H](OC(C)=O)[C@]5(CC)C=CCN6CC[C@]43[C@@H]65)C2)C1 [Vinblastine] (100 nM)	42%	26.6%	61.9%	62.9%	52.3%	31.6%	14.2%	34.7%	44.1%	35.6%	25.3%	40.1%	37.2%	72.4%	57.5%	71.9%	22.4%	56.6%	67.7%		
CS(=O)(=O)c1ccc(C(=O)Nc2ccc(Cl)c(-c3ccccn3)c2)c(Cl)c1 [Vismodegib] (1000 nM)	98.8%	118%	98.9%	90.9%	90.3%	105%	86.5%	94.9%	95.2%	101%	93.3%	95.9%	103%	94.9%	89.6%	98.4%	101%	89.2%	95.5%		

Reference: the supplement of paper PMC4862054
